Active and inactive are the calls of the source. For most assays here, no stated cut-off is given here; in the data, actives have a measured Kd and inactives only a lower limit.
How the values were obtained:
[1] = biological target: T1, Serine/threonine-protein kinase Nek2 (Homo sapiens, UniProt P51955)
T1 sequence (P51955 whole entry): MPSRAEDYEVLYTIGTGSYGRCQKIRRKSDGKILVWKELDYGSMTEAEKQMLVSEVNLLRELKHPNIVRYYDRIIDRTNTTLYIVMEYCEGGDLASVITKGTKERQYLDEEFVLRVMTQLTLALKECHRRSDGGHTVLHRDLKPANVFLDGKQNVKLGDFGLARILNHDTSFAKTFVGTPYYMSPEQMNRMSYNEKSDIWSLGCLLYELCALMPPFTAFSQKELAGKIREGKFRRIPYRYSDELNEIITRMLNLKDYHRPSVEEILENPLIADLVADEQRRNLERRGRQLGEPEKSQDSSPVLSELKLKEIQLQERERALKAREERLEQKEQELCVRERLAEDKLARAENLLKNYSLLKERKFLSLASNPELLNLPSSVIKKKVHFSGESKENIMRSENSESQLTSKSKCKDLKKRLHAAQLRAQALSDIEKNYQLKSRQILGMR

[2] = biological target: TRAF2 and NCK-interacting protein kinase (Homo sapiens, UniProt Q9UKE5)
Chain of TRAF2 and NCK-interacting protein kinase (Q9UKE5 whole entry): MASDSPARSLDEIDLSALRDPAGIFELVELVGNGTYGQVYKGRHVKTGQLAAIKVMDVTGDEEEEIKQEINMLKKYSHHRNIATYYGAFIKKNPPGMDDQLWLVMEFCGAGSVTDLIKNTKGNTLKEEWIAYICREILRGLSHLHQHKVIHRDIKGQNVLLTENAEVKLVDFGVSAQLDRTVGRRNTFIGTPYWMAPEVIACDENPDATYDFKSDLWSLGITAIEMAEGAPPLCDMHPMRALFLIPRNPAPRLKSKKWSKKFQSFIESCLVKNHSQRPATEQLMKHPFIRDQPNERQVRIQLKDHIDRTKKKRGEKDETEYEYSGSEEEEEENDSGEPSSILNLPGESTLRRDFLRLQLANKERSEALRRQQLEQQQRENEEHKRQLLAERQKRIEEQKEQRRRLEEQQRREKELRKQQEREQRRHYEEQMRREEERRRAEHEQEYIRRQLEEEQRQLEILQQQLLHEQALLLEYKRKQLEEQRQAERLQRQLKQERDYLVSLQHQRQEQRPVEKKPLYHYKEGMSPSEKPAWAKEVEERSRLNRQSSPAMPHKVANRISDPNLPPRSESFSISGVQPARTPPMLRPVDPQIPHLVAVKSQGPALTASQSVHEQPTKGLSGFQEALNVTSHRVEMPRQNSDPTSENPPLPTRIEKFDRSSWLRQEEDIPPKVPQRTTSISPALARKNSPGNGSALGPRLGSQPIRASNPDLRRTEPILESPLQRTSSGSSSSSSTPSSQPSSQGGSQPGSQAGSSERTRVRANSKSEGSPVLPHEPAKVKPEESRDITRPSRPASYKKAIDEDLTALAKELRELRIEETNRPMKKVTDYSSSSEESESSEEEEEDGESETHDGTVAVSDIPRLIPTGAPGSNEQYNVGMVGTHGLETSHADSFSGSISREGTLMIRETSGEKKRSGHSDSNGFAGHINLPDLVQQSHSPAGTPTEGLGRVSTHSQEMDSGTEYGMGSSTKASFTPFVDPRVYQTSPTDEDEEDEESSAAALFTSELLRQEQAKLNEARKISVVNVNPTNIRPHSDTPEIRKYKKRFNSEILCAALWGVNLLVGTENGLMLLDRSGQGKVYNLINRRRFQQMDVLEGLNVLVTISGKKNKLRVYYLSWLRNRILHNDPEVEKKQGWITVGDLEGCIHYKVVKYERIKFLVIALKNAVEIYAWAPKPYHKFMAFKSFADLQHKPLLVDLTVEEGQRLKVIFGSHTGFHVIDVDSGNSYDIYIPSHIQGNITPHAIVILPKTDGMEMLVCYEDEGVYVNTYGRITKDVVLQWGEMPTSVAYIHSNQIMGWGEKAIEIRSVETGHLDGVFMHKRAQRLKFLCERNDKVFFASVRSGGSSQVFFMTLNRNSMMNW

[3] = biological target: Tyrosine-protein kinase Yes (Homo sapiens, UniProt P07947)
Chain of Tyrosine-protein kinase Yes (P07947 whole entry): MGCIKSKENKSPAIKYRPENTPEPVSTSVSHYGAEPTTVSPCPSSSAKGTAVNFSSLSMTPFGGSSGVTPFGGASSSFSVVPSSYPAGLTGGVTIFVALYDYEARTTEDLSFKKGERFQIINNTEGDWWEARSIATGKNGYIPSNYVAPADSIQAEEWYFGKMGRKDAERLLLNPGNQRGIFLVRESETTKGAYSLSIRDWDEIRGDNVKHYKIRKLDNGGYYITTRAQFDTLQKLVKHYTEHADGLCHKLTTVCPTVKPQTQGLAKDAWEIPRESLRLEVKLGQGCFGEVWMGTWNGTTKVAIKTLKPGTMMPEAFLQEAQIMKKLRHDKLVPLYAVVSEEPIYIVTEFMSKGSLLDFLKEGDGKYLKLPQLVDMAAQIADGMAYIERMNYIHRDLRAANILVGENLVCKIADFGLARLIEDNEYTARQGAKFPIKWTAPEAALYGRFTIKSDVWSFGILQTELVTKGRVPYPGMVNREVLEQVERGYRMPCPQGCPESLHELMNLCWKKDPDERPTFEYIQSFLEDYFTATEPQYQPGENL

[4] = biological target: U5 small nuclear ribonucleoprotein 200 kDa helicase (Homo sapiens, UniProt O75643)
[5] = biological target: Mitogen-activated protein kinase 8 (Homo sapiens, UniProt P45983)
Chain of Mitogen-activated protein kinase 8 (P45983 whole entry): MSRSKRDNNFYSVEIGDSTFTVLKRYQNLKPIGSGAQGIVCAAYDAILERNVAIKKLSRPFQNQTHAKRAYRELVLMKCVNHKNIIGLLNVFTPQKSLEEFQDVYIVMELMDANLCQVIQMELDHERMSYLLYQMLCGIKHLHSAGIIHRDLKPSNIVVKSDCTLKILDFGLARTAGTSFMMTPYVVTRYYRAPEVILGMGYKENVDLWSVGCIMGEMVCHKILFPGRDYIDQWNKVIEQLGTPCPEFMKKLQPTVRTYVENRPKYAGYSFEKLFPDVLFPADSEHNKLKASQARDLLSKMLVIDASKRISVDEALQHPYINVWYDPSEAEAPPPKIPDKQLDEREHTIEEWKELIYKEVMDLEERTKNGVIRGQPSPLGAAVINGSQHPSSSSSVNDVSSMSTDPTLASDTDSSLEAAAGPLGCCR

[6] = biological target: Serine/threonine-protein kinase PAK 4 (Homo sapiens, UniProt O96013)
Chain of Serine/threonine-protein kinase PAK 4 (O96013 whole entry): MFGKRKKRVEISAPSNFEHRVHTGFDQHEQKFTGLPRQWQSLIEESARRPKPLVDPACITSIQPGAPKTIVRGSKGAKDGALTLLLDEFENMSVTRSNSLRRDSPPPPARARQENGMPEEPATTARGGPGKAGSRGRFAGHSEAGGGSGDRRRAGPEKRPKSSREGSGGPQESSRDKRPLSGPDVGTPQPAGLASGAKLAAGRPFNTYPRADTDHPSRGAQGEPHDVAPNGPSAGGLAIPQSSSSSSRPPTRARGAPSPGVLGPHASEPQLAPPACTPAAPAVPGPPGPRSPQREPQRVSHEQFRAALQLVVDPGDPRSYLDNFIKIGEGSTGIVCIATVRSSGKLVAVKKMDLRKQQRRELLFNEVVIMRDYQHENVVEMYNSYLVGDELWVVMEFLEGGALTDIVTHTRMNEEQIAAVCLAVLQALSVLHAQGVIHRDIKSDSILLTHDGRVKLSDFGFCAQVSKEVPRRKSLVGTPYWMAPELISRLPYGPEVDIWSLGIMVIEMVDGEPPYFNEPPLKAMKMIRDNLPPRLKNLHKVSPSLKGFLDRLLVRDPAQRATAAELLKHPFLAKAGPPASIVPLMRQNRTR

Wee1-like protein kinase = Wee1-like protein kinase (Homo sapiens, UniProt P30291)
Chain of Wee1-like protein kinase (P30291 whole entry): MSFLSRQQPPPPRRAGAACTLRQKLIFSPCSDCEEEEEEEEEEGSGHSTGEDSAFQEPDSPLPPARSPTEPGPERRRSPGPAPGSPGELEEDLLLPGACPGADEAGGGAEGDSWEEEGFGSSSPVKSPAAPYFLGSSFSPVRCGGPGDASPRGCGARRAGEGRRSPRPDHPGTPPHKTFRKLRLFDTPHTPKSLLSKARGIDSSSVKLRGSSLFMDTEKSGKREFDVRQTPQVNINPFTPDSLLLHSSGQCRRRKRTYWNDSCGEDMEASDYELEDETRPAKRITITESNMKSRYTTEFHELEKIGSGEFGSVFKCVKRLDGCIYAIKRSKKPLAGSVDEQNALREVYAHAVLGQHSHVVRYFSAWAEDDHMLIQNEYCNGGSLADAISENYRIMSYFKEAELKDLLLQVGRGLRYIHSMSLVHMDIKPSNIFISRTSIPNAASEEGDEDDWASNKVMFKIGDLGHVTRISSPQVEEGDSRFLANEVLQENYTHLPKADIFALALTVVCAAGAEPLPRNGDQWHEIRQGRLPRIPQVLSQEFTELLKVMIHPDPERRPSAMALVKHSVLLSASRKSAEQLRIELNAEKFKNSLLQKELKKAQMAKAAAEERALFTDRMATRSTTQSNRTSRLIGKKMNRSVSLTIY

[7] = biological target: Tyrosine-protein kinase FRK (Homo sapiens, UniProt P42685)
Chain of Tyrosine-protein kinase FRK (P42685 whole entry): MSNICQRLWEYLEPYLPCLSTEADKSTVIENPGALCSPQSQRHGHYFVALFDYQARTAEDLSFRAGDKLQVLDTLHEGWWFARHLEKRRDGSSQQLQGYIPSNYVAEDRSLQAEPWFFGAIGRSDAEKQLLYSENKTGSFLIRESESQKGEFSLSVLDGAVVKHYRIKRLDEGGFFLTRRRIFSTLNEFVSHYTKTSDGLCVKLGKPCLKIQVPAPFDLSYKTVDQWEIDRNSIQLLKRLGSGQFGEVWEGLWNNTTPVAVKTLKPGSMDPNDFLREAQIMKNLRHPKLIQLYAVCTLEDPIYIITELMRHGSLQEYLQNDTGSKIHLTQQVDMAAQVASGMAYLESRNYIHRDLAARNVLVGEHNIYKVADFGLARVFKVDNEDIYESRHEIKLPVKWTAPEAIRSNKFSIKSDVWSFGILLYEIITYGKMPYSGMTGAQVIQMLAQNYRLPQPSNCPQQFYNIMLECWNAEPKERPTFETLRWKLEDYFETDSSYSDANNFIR

Rab-like protein 3 = biological target: T2, Rab-like protein 3 (Homo sapiens, UniProt Q5HYI8)
T2 sequence (Q5HYI8 whole entry): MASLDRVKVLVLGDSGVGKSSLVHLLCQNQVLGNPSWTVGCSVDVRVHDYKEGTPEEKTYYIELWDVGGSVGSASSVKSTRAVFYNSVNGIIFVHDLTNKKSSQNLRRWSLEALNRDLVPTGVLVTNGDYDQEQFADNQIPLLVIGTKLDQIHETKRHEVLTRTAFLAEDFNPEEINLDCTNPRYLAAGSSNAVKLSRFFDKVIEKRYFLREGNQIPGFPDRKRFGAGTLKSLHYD

[8] = biological target: Cyclin-dependent kinase 1 (Homo sapiens, UniProt P06493)
Chain of Cyclin-dependent kinase 1 (P06493 whole entry): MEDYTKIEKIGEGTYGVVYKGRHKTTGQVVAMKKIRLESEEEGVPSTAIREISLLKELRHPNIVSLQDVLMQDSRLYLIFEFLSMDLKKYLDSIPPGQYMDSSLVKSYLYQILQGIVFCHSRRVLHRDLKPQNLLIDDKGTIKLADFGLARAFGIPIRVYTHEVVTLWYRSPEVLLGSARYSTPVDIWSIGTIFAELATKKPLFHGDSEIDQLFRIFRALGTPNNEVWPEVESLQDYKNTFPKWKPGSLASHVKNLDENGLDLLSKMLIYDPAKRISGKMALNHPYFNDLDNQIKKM

[9] = biological target: T3, Dual specificity mitogen-activated protein kinase kinase 6 (Homo sapiens, UniProt P52564)
T3 sequence (P52564 whole entry): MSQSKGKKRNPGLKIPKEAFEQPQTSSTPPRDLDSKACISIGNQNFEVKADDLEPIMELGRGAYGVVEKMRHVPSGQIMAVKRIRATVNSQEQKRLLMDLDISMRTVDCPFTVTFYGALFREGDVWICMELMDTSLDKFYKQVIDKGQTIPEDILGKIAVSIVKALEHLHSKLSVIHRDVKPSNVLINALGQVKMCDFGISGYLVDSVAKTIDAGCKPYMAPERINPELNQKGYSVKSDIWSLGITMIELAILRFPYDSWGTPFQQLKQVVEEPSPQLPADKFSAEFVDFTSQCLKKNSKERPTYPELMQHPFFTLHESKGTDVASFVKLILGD

Ephrin type-B receptor 6 = biological target: T4, Ephrin type-B receptor 6 (Homo sapiens, UniProt O15197)
T4 sequence (O15197 whole entry): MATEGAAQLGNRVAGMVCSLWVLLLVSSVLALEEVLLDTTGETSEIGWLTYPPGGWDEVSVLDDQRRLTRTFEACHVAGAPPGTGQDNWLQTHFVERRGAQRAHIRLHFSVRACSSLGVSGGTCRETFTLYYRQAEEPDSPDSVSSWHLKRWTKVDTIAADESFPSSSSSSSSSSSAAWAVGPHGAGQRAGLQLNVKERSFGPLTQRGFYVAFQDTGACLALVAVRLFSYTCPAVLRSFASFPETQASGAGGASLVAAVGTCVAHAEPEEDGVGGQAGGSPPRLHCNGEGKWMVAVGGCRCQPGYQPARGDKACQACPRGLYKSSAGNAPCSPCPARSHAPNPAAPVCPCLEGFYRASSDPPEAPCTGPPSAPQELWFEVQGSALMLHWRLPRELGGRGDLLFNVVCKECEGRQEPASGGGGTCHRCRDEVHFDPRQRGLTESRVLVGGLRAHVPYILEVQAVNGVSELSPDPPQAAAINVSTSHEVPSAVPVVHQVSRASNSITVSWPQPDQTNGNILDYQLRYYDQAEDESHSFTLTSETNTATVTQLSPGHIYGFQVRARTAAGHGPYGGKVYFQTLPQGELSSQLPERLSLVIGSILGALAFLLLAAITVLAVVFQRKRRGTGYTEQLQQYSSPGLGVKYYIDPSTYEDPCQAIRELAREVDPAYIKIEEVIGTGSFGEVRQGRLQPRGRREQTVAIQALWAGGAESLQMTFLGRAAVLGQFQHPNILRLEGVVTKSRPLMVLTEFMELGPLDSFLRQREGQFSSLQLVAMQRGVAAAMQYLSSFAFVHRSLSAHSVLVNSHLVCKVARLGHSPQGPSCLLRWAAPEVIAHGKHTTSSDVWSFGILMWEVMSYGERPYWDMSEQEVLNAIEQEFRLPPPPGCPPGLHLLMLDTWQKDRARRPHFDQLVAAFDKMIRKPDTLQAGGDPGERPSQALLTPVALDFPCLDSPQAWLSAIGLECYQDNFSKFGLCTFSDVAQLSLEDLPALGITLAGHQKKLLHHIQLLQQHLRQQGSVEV

Kd [1] | Kd [2] | Kd [3] | Kd [4] | Kd [5] | Kd [6] | Kd (Wee1-like protein kinase) | Kd [7] | Kd (Rab-like protein 3) | Kd [8] | Kd [9] | Kd (Ephrin type-B receptor 6) | Structure (SMILES)
> 30 µM (inactive) | > 30 µM (inactive) | > 30 µM (inactive) | > 30 µM (inactive) | > 30 µM (inactive) | > 30 µM (inactive) | > 30 µM (inactive) | > 30 µM (inactive) | > 30 µM (inactive) | > 30 µM (inactive) | > 30 µM (inactive) | > 30 µM (inactive) | CC[C@@H]1C(=O)N(C)c2cnc(Nc3ccc(C(=O)N[C@H]4CC[C@H](N5CCN(CC6CC6)CC5)CC4)cc3OC)nc2N1C(C)C [VOLASERTIB]
> 30 µM (inactive) | > 30 µM (inactive) | > 30 µM (inactive) | > 30 µM (inactive) | > 30 µM (inactive) | > 30 µM (inactive) | > 30 µM (inactive) | > 30 µM (inactive) | > 30 µM (inactive) | > 30 µM (inactive) | > 30 µM (inactive) | > 30 µM (inactive) | Cc1cc([C@@H](C)Nc2ccccc2C(=O)O)c2nc(N3CCOCC3)cc(=O)n2c1 [AZD-6482]
> 30 µM (inactive) | > 30 µM (inactive) | > 30 µM (inactive) | > 30 µM (inactive) | > 30 µM (inactive) | > 30 µM (inactive) | > 30 µM (inactive) | 1.1 µM (active) | > 30 µM (inactive) | > 30 µM (inactive) | > 30 µM (inactive) | > 30 µM (inactive) | COCCNCc1ccc(-c2cc3nccc(Oc4ccc(NC(=S)NC(=O)Cc5ccc(F)cc5)cc4F)c3s2)nc1 [GLESATINIB]
> 30 µM (inactive) | > 30 µM (inactive) | > 30 µM (inactive) | > 30 µM (inactive) | > 30 µM (inactive) | > 30 µM (inactive) | > 30 µM (inactive) | > 30 µM (inactive) | > 30 µM (inactive) | > 30 µM (inactive) | > 30 µM (inactive) | > 30 µM (inactive) | COc1ccc(-c2ccc3c(N4CCOC[C@@H]4C)nc(N4CCOC[C@@H]4C)nc3n2)cc1CO [AZD-8055]
> 30 µM (inactive) | > 30 µM (inactive) | > 30 µM (inactive) | > 30 µM (inactive) | > 30 µM (inactive) | > 30 µM (inactive) | > 30 µM (inactive) | > 30 µM (inactive) | > 30 µM (inactive) | > 30 µM (inactive) | > 30 µM (inactive) | > 30 µM (inactive) | Cc1cc2c(F)c(Oc3ncnn4cc(OC[C@@H](C)OC(=O)[C@H](C)N)c(C)c34)ccc2[nH]1 [BRIVANIB ALANINATE]

Structure (SMILES) | Kd [1] | Kd [2] | Kd [3] | Kd [4] | Kd [5] | Kd [6] | Kd (Wee1-like protein kinase) | Kd [7] | Kd (Rab-like protein 3) | Kd [8] | Kd [9] | Kd (Ephrin type-B receptor 6)
Cc1ccc(-n2nc(C(C)(C)C)cc2NC(=O)NCc2cc(F)ccc2Oc2ccc3c(cnn3CCO)c2)cc1 [PEXMETINIB] | > 30 µM (inactive) | > 30 µM (inactive) | > 30 µM (inactive) | > 30 µM (inactive) | > 30 µM (inactive) | > 30 µM (inactive) | > 30 µM (inactive) | 1.55 µM (active) | > 30 µM (inactive) | > 30 µM (inactive) | > 30 µM (inactive) | > 30 µM (inactive)
